Structures are written as SMILES. Where two headings read alike, the source gives them in different places.

In this experiment the target is T1, TANK-2 enzyme (Homo sapiens, UniProt Q9H2K2).
T1 construct: made in house
T1 sequence (Q9H2K2 1-1166): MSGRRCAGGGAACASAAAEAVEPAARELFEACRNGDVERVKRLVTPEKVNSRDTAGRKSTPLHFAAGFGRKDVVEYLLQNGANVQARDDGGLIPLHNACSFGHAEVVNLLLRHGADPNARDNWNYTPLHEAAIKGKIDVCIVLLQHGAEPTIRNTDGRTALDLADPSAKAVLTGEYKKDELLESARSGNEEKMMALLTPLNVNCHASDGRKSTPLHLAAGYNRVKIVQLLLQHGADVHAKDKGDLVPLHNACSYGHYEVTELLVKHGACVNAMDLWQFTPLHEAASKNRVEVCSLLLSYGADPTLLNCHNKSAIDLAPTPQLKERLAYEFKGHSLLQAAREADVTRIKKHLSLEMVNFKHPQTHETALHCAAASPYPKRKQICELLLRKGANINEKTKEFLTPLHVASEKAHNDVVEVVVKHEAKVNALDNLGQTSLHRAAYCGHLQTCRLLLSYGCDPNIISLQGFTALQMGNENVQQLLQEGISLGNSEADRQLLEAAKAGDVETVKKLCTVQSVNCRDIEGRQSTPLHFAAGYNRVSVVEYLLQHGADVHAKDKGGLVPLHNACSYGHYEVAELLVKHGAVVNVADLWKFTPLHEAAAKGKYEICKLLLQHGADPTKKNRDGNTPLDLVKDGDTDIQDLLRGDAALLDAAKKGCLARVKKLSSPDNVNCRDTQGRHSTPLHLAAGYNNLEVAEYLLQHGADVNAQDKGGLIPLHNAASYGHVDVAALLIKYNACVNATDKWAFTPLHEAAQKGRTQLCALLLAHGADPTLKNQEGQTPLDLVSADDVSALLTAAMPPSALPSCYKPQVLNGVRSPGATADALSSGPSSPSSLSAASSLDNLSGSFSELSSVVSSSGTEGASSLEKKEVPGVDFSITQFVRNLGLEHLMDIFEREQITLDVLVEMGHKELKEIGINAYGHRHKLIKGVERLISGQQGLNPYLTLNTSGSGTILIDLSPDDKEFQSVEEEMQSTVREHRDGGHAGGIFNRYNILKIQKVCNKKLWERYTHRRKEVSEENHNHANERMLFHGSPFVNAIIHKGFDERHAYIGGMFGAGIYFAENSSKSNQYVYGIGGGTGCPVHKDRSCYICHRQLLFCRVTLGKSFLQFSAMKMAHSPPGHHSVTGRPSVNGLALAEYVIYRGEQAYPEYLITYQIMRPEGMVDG
Description: In vitro Scintillation Proximity Assay (SPA) for TANK-2 inhibitory activity. Type of experiment: biochemical. The method in brief:
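Results are pIC50 values, with IC50 interpolated linearly around 50% of blank-subtracted control cpm. They come from a scintillation proximity read of TANK-2 (8 μg/ml) self-modification with [3H]-NAD+/NAD, incubated 120 min at room temperature in pH 7.4 Tris buffer containing MgCl2 and DTT. Compounds were first screened at 10^−5 M.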
(Scintillation proximity formats need no separation of bound from free tracer.)

Where [1] appears, read: read-out: in vitro SPA assay TANK-2 pIC50 (converted).

Turning to `CCc1cc2ccc(C(C)(C#N)Cc3nc(C#N)cc(OC)n3)cc2[nH]c1=O` (single isomer, unassigned) [Compound 204], the IC50 (in vitro SPA assay TANK-2 pIC50) is 158 nM. As to `CCc1cc2c(OC)cc(C(C)(C#N)Cc3nc(OC)cc(OC)n3)cc2[nH]c1=O` (single isomer, unassigned) [Compound 230], the IC50 under setting [1] was 20 nM. With `CCc1cc2ccc([C@@](C)(C#N)CCOc3ccc(C#N)cc3)cc2[nH]c1=O` (single isomer, unassigned) [Compound 273], the IC50 under setting [1] was 100 nM. For the compound `CCc1cc2ccc([C@](C)(C#N)CCOc3ccc(C#N)cc3)cc2[nH]c1=O` (single isomer, unassigned) [Compound 275], the IC50 under setting [1] is 63.1 nM.

Turning to `CCc1cc2ccc([C@](C)(C#N)Cc3cccc(/C=C/S(C)(=O)=O)c3)cc2[nH]c1=O` (single isomer, unassigned) [Compound 291], the IC50 under setting [1] was 126 nM. `CCc1cc2ccc([C@@](C)(C#N)Cc3cccc(C#CCO)c3)cc2[nH]c1=O` (single isomer, unassigned) [Compound 295]: the IC50 under setting [1] is 126 nM. The same measure, in the same setting: in the case of `CCc1cc2ccc([C@](C)(C#N)Cc3cccc(C#CCO)c3)cc2[nH]c1=O` (single isomer, unassigned) [Compound 296] it was 200 nM. `CCc1cc2ccc([C@@](C)(C#N)Cc3cc(OC)nc(C)n3)cc2[nH]c1=O` (single isomer, unassigned) [Compound 361]: the IC50 under setting [1] was 50.1 nM. Still for that read-out and setting: in the case of `CCc1cc2ccc([C@](C)(C#N)Cc3cc(OC)nc(C)n3)cc2[nH]c1=O` (single isomer, unassigned) [Compound 362] it was 126 nM; in that of `Cc1cc2ccc([C@@](C)(C#N)C3CCc4ccccc43)cc2[nH]c1=O` (single isomer, unassigned) [Compound 385], 2000 nM; in that of `Cc1cc2ccc([C@](C)(C#N)C3CCc4ccccc43)cc2[nH]c1=O` (single isomer, unassigned) [Compound 386], 1260 nM. On the same count and under the same terms, in the case of `CCc1cc2ccc(C(C)(C#N)Cc3cccc(OCCCN4CCNCC4)c3)cc2[nH]c1=O` (centres unmarked) [Compound 25] it was 50.1 nM; in that of `CCc1cc2ccc(C(C#N)(Cc3ccccc3)c3ccc(C#N)cc3)cc2[nH]c1=O` (centres unmarked) [Compound 26], 251 nM; in that of `CCc1cc2ccc(C(C#N)(Cc3ccccc3)c3ccccc3)cc2[nH]c1=O` (centres unmarked) [Compound 27], 631 nM.

In the case of `CCc1cc2ccc(C(C#N)(Cc3ccccc3)C3CC3)cc2[nH]c1=O` (centres unmarked) [Compound 29], the IC50 under setting [1] is 31.6 nM. The same measure, in the same setting: in the case of `CCc1cc2ccc(C(C#N)(Cc3ccccc3)C(C)C)cc2[nH]c1=O` (centres unmarked) [Compound 30] it was 794 nM; in that of `CCCC(C#N)(Cc1ccccc1)c1ccc2cc(CC)c(=O)[nH]c2c1` (centres unmarked) [Compound 31], 251 nM. Still for that read-out and setting: in the case of `CCc1cc2ccc(C(C)(C#N)Cc3cc(OC)ccc3F)cc2[nH]c1=O` (centres unmarked) [Compound 171] it was 200 nM. Same read-out and setting: in the case of `CCc1cc2ccc(C(C)(C#N)Cc3cccc(-c4ccc[nH]4)c3)cc2[nH]c1=O` (centres unmarked) [Compound 176] it was 158 nM; in that of `CCc1cc2ccc(C(C)(C#N)Cc3cccc(CCS(C)(=O)=O)c3)cc2[nH]c1=O` (centres unmarked) [Compound 178], 200 nM.

Regarding `Cc1cc2ccc(C(C)(C#N)Cc3cccc(C=Cc4ccccc4)c3)cc2[nH]c1=O` (centres unmarked) [Compound 179], the IC50 under setting [1] was 2510 nM. For the compound `CCc1cc2ccc(C(C)(C#N)Cc3cccc(/C=N/OC)c3)cc2[nH]c1=O` (centres unmarked) [Compound 185], the IC50 under setting [1] is 158 nM. On the same count and under the same terms, in the case of `CCc1cc2ccc(C(C)(C#N)Cc3cccc(C(=N)NO)c3)cc2[nH]c1=O` (centres unmarked) [Compound 186] it was 79.4 nM. With `CCc1cc2ccc(C(C)(C#N)Cc3cccc(OCCCC#N)c3)cc2[nH]c1=O` (centres unmarked) [Compound 194], the IC50 under setting [1] was 126 nM. Same read-out and setting: the value for `CCc1cc2ccc(C(C)(C#N)Cc3cccc(OCCC#N)c3)cc2[nH]c1=O` (centres unmarked) [Compound 195] was 398 nM; that for `C#CCOc1cccc(CC(C)(C#N)c2ccc3cc(CC)c(=O)[nH]c3c2)c1` (centres unmarked) [Compound 196] was 316 nM.

In the case of `CCc1cc2ccc(C(C)(C#N)COCc3ccccc3)cc2[nH]c1=O` (centres unmarked) [Compound 197], the IC50 under setting [1] was 63.1 nM. The same measure, in the same setting: the value for `CCc1cc2ccc(C(C)(C#N)Cc3cccc(OCCS(C)(=O)=O)c3)cc2[nH]c1=O` (centres unmarked) [Compound 201] was 200 nM; that for `CCc1cc2ccc(C(C)(C#N)Cc3nc(Cl)cc(OC)n3)cc2[nH]c1=O` (centres unmarked) [Compound 202] was 251 nM; that for `CCc1cc2ccc(C(C)(C#N)Cc3nc(N(C)C)cc(N(C)C)n3)cc2[nH]c1=O` (centres unmarked) [Compound 205] was 200 nM. Regarding `CCc1cc2ccc(C(C)(C#N)Cc3cccc(N4CCC(N(C)C)C4)n3)cc2[nH]c1=O` (centres unmarked) [Compound 209], under setting [1], the IC50 was 501 nM. Still for that read-out and setting: the value for `CCc1cc2ccc(C(C)(C#N)Cc3cccc(C#Cc4cncn4C)n3)cc2[nH]c1=O` (centres unmarked) [Compound 217] was 158 nM; that for `CCc1cc2ccc(C(C)(C#N)Cc3cccc(N(C)CCc4ccccc4)n3)cc2[nH]c1=O.Cl` (centres unmarked) [Compound 220] was 1000 nM. `CCc1cc2ccc(C(C)(C#N)Cc3cccc(C#N)[n+]3[O-])cc2[nH]c1=O` (centres unmarked) [Compound 228]: the IC50 under setting [1] is 15.8 nM. Still for that read-out and setting: in the case of `CCc1cc2c(OC)cc(C(C)(C#N)Cc3nc(OC)cc(OC)n3)cc2[nH]c1=O` (centres unmarked) [Compound 229] it was 10 nM; in that of `CCc1cc2ccc(C(C)(C#N)CN3CCN(c4ccccn4)CC3)cc2[nH]c1=O` (centres unmarked) [Compound 233], 158 nM; in that of `Cc1nc(-c2ccccc2)sc1CC(C)(C#N)c1ccc2cc(C)c(=O)[nH]c2c1` (centres unmarked) [Compound 235], 1000 nM. On the same count and under the same terms, in the case of `CCc1cc2ccc(C(C)(C#N)Cc3cccc4c3CCN4)cc2[nH]c1=O` (centres unmarked) [Compound 237] it was 126 nM; in that of `CCc1cc2ccc(C(C)(C#N)Cc3cccc(C(=O)OC(C)C)c3)cc2[nH]c1=O` (centres unmarked) [Compound 255], 794 nM; in that of `Cc1cc2ccc(C(C)(C#N)Cc3cccc(I)c3)cc2[nH]c1=O` (centres unmarked) [Compound 256], 1260 nM. On the same count and under the same terms, the value for `CCc1cc2ccc(C(C)(C#N)Cc3cccc(NC)c3)cc2[nH]c1=O` (centres unmarked) [Compound 257] was 251 nM; that for `CCc1cc2ccc(C(C)(C#N)Cc3cc(Br)cc(N(C)C)c3)cc2[nH]c1=O` (centres unmarked) [Compound 260] was 251 nM. Turning to `Cc1cc2ccc(C(C)(C#N)Cc3cccc(OCC4CCOCC4)c3)cc2[nH]c1=O` (centres unmarked) [Compound 261], the IC50 under setting [1] is 2510 nM. On the same count and under the same terms, the value for `CCc1cc2ccc(C(C)(C#N)Cc3cc(F)ccc3F)cc2[nH]c1=O` (centres unmarked) [Compound 280] was 126 nM; that for `CCc1cc2ccc(C(C)(C#N)Cc3ccc(F)c(F)c3)cc2[nH]c1=O` (centres unmarked) [Compound 281] was 158 nM; that for `CCc1cc2ccc(C(C)(C#N)Cc3cc(C(F)(F)F)ccc3F)cc2[nH]c1=O` (centres unmarked) [Compound 283] was 398 nM.

On to `CCOc1cccc(CC(C)(C#N)c2ccc3cc(CC)c(=O)[nH]c3c2)c1` (centres unmarked) [Compound 285], for which the IC50 under setting [1] is 251 nM. Still for that read-out and setting: in the case of `CCc1cc2ccc(C(C)(C#N)Cc3cccc(OC)c3F)cc2[nH]c1=O` (centres unmarked) [Compound 286] it was 200 nM; in that of `CCc1cc2ccc(C(C)(C#N)Cc3cc(C(C)C)ccc3OC)cc2[nH]c1=O` (centres unmarked) [Compound 288], 1000 nM; in that of `CCc1cc2ccc(C(C)(C#N)Cc3cc(OC)c(OC)c(OC)c3)cc2[nH]c1=O` (centres unmarked) [Compound 289], 251 nM. Turning to `CCc1cc2ccc(C(C)(C#N)Cc3cccc(/C=N/O)c3)cc2[nH]c1=O` (centres unmarked) [Compound 299], the IC50 under setting [1] is 158 nM. With `CCc1cc2ccc(C(C)(C#N)CN(C)Cc3ccc(C#N)cc3)cc2[nH]c1=O` (centres unmarked) [Compound 300], the IC50 under setting [1] was 398 nM. On the same count and under the same terms, the value for `CCc1cc2ccc(C(C)(C#N)CNCc3ccc(C#N)cc3)cc2[nH]c1=O` (centres unmarked) [Compound 302] was 100 nM. As to `Cc1cc2ccc(C(C)(C#N)Cc3cccc(Oc4ccccc4)c3)cc2[nH]c1=O` (centres unmarked) [Compound 305], the IC50 under setting [1] was 1580 nM. Same read-out and setting: in the case of `CCc1cc2ccc(C(C)(C#N)Cc3nc(C#N)cc(OC)n3)cc2[nH]c1=O` (centres unmarked) [Compound 313] it was 100 nM; in that of `CCc1cc2ccc(C(C)(C#N)Cc3cc(C#N)nc(OC)c3)cc2[nH]c1=O` (centres unmarked) [Compound 314], 25.1 nM.

Source of the values: patent US8778966B2, “Quinolinone derivatives as PARP and tank inhibitors” (Janssen Pharmaceutica, NV, priority 2007, dated 2014).
